Experiments:
rats with heart failure = experiment: Endothelial function of isolated coronary and mesenteric arteries (myograph) in rats with heart failure; format: in vivo, rat; details: 10 mg/kg per day for 3 months
Procedure: (§1) The impact of treatment with ivabradine on endothelial function was studied in two pathological animal models, dyslipidaemic mice, and rats with heart failure, on 4 different vascular beds, renal and cerebral arteries in the mouse, coronary and mesenteric arteries in the rats. Study of the endothelial function comprises measuring the capacity of the vessel to dilate in response to various stimuli, such as acetylcholine, or measuring the increase in flow in the vessel.
(§2) Some animals were treated with ivabradine, 10 mg/kg per day for 3 months. Dyslipidaemic mice, rats with heart failure, healthy mice (Wild type) and healthy rats, untreated, acted as controls. At the end of the treatment period, the arteries were isolated and mounted in a myograph in order to measure their diameter after the application of acetylcholine or to measure the increase in flow. In order to explore more closely the mechanism associated with endothelial dysfunction, inhibitors of the principal pathways of vasodilation were tested: a free-radical chelating agent, a nitrogen monoxide production inhibitor, a prostacyclin pathway inhibitor.

dyslipidaemic mice = experiment: Endothelial function and compliance of isolated renal and cerebral arteries (myograph) in dyslipidaemic mice; format: in vivo, mouse; details: 10 mg/kg per day for 3 months
Procedure: as §1, §2
The compliance (capacity of the vessel to dilate as the transmural pressure increases) of the cerebral arteries of the mice was also evaluated.

[1] = system: dyslipidaemic mice, and rats with heart failure; experiment: Cardiac frequency after 3 months' treatment in the animal models; format: in vivo, mouse, rat; details: 10 mg/kg per day for 3 months
[2] = system: dyslipidaemic mice, and rats with heart failure; experiment: Mechanism of endothelial dysfunction explored with inhibitors of the principal pathways of vasodilation; format: in vivo, mouse, rat; details: mechanism of the beneficial effects; 10 mg/kg per day for 3 months
Procedure: as §2

COc1cc2c(cc1OC)CC(=O)N(CCCN(C)C[C@H]1Cc3cc(OC)c(OC)cc31)CC2 [ivabradine, 3-{3-[{[(7S)-3,4-dimethoxybicyclo [4.2.0]octa-1,3,5-trien-7-yl]-methyl}-(methyl)-amino]-propyl}-7,8-dimethoxy-1,3,4,5-tetrahydro-2H-3-benzazepin-2-one]
endothelial dysfunction (capacity to dilate) in the coronary artery (rats with heart failure; HF rat, FIG. 1A): completely prevents entothelial dysfunction | capacity of the mesenteric artery to dilate (rats with heart failure; treated HF rat compared with untreated HF rat, FIG. 1B): appreciably improved | endothelial dysfunction (capacity to dilate) in the cerebral artery (dyslipidaemic mice; DL mouse, FIG. 1C, D): completely prevents entothelial dysfunction | endothelial dysfunction (capacity to dilate) in the renal artery (dyslipidaemic mice; DL mouse, FIG. 1C, D): completely prevents entothelial dysfunction | compliance of the isolated cerebral arteries (dyslipidaemic mice; treated mice): improved | reduction in cardiac frequency [1]: 10-20% | nitrogen monoxide pathway [2]: preservation of the nitrogen monoxide pathway | oxidative stress [2]: decrease in oxidative stress

Reference: patent publication US20110288072A1, “Use of ivabradine for obtaining medicaments intended for the treatment of endothelial dysfunction” (LES LABORATOIRES SERVIER, priority 2007, published 2011)
